Data on 4 molecules can be found in patent US20240316187A1, “PROTEINS IDENTIFIED FROM BARN DUST EXTRACT FOR THE PREVENTION AND TREATMENT OF DISEASES” (Helmholtz Zentrum München - Deutsches Forschungszentrum für …, priority 2021, published 2024).

Entries after “also recorded” stand apart in the source; their conditions may differ.

For one test, the target named is T1, human TLR2 (Homo sapiens, UniProt O60603).
T1 construct: host or cells: HEK293 (HEK-Blue-hTLR2)
In words: Activation of TLR-2, NFkB induction in HEK-Blue-hTLR2 cells (SEAP reporter). The format is cell-based. Particulars: human TLR2 transfected HEK cells; positive control Pam3CSK4; FIG. 5. An excerpt: NKfB induction in HEK-hTLR2. Dotted line: PBS/DMSO (negative control); Pam3CSK4=positive control; Farm dust (Hec 20)=Cow shed dust extract>10 kDa autoclaved; Bosd2+FA=His-Trx-Bos d2+€-12-oxoheptadec-10-enaic acid; OBP+FA=bOBP+€-12-oxoheptadec-10-enaic acid; OBP=bOBP; FA=€-12-oxoheptadec-10-enaic acid.
HEK-Blue™-hTLR2 cells (InvivoGen) are obtained by co-transfection of the human TLR2 and SEAP (secreted embryonic alkaline phosphatase) genes into HEK293 cells. The SEAP reporter gene is placed under the control of the IFN-β minimal promoter fused to five NF-κB and AP-1-binding sites. Additionally, the CD14 co-receptor gene was transfected into these cells to enhance the TLR2 response. Stimulation with a TLR2 ligand activates NF-κB and AP-1, which in turn induce the production of SEAP. Levels of SEAP are determined with HEK-Blue™ Detection, a cell culture medium that allows for real-time detection of SEAP.

For a further test, the system named is 16HBE cells. In words: TEER assay, epithelial barrier function. It counts as cell-based. Particulars: 20 μg/ml, 24 hours after treatment; compared with cow SDE at 200 μg/ml; FIG. 6. How it is done: TEER Assay: 16HBE: untreated cells; Farm dust (Hec 20)=Cow shed dust extract>10 kDa autoclaved, 200 μg/ml; Bosd2+FA=His-Trx-Bos d2+(E)-12-oxoheptadec-10-enaic acid, 20 μg/ml; OBP+FA=bOBP+(E)-12-oxoheptadec-10-enaic acid, 20 μg/ml.
To examine the effect of the Lipoproteins Bos d2+FA and OBP+FA on the epithelial barrier function as measured by transepithelial electrical resistance (TEER). 16HBE (100.000 (1×10*5)) cells were seeded on transwell inserts in […] medium (MEM with Earle's salt, 10% FBS (during cultivation only, during assay no FBS), 1% L-Glutamine, 1% Penicillin/Streptomycin). After 24 hours of culture, cells were treated with the indicated compounds, and 24 hours after treatment, TEER values were determined using an EVOM2 epithelial voltohmmeter (World Precision Instruments). Cow SDE was used at 200 μg/ml, all other compounds were used at 20 μg/ml.

Test [1] relates to OVA pulsed BMDCs cocultured with OT-II CD4 T cells. In words: DC/T-cell interaction assay. It counts as cell-based, mouse. Particulars: pre-treatment of BMDCs (two treatments), LPS stimulation, FIG. 8. How it is done: Effect of lipoprotein candidates on DC T-cell interaction: OVA pulsed BMDCs enhanced OT-II CD4 T cell number (Medium), which was prevented by pre-treatment of BMDCs with, Bos d2+FA and OPB+FA. CD4+ count: For each sample 10400 counting beads were added to tube and 5000 beads were counted for recording. CD4+ count indicates the amount of CD4+ cells contained in the volume needed to count 5000 beads. (FA: (E)-12-oxoheptadec-10-enaic acid).
DCs are professional antigen presenting cells crucial for the priming of CD4 T cells in asthma and allergy. The mouse primary bone marrow derived DCs (BMDCs) were utilized to evaluate the ability of the test substances to modulate their activation. DC activation is monitored their ability to regulate the differentiation and proliferation of OVA-specific CD4 T cells (OT-II) following DC pulsing with the OVA peptide.
For this assay, bone marrow derived DCs are isolated from C57B16 mice and put into culture. […]
Isolate bone marrow from wild-type C57BL/6 mouse and seed cells in 10 ml Petri dishes in 10 ml volume (2 million cells/dish) containing 20 ng/ml rmGM-CSF. […] Cells were then collected and counted with the help of counting beads and seeded in V bottom 96 well plates (10000 cells/well) and pulsed with OVA peptide (323-339) for 3 hours. […] 20000 stained T Cells were cocultured with DCs for […], and T Cells were then analyzed with flow cytometry.

In test [2] the test system is Balb/c mice sensitized with OVA. In words: OVA allergic asthma model, intranasal application of test substance. It counts as in vivo, mouse. Particulars: for Bronchoalveolar lavage (BAL) eosinophil numbers / AHR to increasing doses of methacholine: 12 intranasal applications d0-d26, analysis day 28; for Bronchoalveolar lavage (BAL) eosinophil numbers: FIG. 10; for AHR to increasing doses of methacholine: FlexiVent, FIG. 11. How it is done: Control mice were sham sensitized to PBS. Error bars reflect SEM. P values reflect one-way ANOVA, *: p value<0.05, **: p value<0.01; (FA: (E)-12-oxoheptadec-10-enaic acid).
Control mice were sham sensitized to PBS. Error bars reflect SEM. (FA: (E)-12-oxoheptadec-10-enaic acid).
Balb/c mice were first be sensitized with 10 μg OVA in Alum i.p. on day 0, 7 and 14. Three consecutive intranasal challenges with 100 μg OVA on day 25, 26 and 27, with analysis being undertaken on day 28, follows. From d0-d26 there were 12 consecutive intranasal applications of test substance. Asthma pathogenesis was assessed using methacholine lung function challenge to examine AHR as undertaken in allergic asthma patients. Furthermore, pathological manifestations such as eosinophilia was assessed. • Sensitzation: 10 μg valbumin (OVA Grade VI, Sigma, Stainheim, D) dissolved in 100 μl PBS on days 0, 7 and 14 of the assay protocol together with 100 μl (1 mg) of the adjuvant aluminium hydroxyde (Al(OH)3) (Inject Alum, Pierce, USA). • Challenge: OVA Grade V in 100 μg/mouse in 25 μl (concentration: 4 mg/ml)
Eosiniphilnumbers in the Bronchoalveolar lavage (BAL) are shown in FIG. 10. • Airway Hyperresponsivenes (AHR): Dynamic resistance and compliance (in response to increasing doses of MCh) FlexiVent results are shown in FIG. 11.

The next test has as its target T2, 15N-bOBP (Bos taurus, UniProt P07435).
T2 construct: 6xHis (N, cleaved yes); Thioredoxin (Trx) (N, cleaved yes); TEV cleavage site (N, cleaved yes); made in house; host or cells: E. coli BL21 (M9 minimal medium for 15N labelling)
T2 sequence (P07435 with tags, fused parts or gaps): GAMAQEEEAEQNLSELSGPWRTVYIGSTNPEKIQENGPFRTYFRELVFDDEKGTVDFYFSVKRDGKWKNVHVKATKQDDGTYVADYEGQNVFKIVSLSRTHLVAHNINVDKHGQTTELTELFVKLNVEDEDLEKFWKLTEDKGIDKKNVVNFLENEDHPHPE
In words: NMR binding studies (1H,15N-HSQC titration). Particulars: 200 μM 15N-bOBP alone or in presence of 1 mM and 2 mM fatty acid, pH 6.5, 25° C. How it is done:
NMR binding studies. Overlay of ^1H, […] spectra of ^15N-bOBP alone and in presence of 5- and 10-fold excess of (E)-12-oxoheptadec-10-enoic acid. Arrow and inlet show CSP of exemplary peak. Arrows and inlets show CSP of exemplary peaks.
NMR measurements were performed in 3 mm tubes at 25° C. on a Bruker Avance III spectrometer operating at 600 MHz ^1H frequencies using H/N/C triple-resonance cryogenic probes. To confirm fatty acid binding, two-dimensional ^1H, ^15N heteronuclear single quantum correlation (HSQC) spectra were recorded of 200 μM ^15N-bOBP in 20 mM phosphate buffer pH 6.5, 50 mM NaCl, 1 mM β-mercaptoethanol and 10% (v/v) D20 alone or in presence of 1 mM and 2 mM fatty acid.

T1 sequence (O60603 21-784): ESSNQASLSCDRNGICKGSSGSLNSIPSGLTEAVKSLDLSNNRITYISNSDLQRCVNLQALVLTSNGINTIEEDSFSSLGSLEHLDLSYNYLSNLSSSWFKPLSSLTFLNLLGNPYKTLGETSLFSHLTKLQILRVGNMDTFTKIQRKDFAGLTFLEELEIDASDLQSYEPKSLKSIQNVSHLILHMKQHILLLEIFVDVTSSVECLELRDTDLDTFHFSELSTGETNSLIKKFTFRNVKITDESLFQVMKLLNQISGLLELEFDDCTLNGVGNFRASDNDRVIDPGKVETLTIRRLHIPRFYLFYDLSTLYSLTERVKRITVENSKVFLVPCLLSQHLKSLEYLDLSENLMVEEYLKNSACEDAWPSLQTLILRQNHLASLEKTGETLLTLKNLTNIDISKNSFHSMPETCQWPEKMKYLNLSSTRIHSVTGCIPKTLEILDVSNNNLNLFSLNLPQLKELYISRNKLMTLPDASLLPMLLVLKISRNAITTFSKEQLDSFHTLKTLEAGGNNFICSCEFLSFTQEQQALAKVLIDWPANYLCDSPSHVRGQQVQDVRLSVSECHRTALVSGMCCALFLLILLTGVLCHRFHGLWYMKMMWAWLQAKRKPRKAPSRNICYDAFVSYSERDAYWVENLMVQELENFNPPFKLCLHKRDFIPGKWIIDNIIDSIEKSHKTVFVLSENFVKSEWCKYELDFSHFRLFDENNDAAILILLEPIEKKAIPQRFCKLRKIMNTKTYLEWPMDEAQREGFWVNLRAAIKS

As for “OBP+FA: Lipoprotein complex of bOBP incubated with 5 fold molar excess of (E)-12-oxoheptadec-10-enoic acid, dialysed”, the “NFkB induction in HEK-hTLR2 (TLR2 activation)” value (“NFkB induction in HEK-hTLR2” for short) in the test with human TLR2 is “even stronger effect than the cow SDE”. Further, in the test with 16HBE cells, the “transepithelial electrical resistance (TEER)” value is reported as “stronger effect, at much lower concentration”. Further, in test [1], the “OT-II CD4 T cell number (CD4+ count)” value was “prevented”. In addition, in test [2], the “Bronchoalveolar lavage (BAL) eosinophil numbers” value (“Bronchoalveolar lavage” below) is “prevented allergic asthma” and the “AHR to increasing doses of methacholine” value is recorded as “significant effect; also recorded: prevented allergic asthma”. Besides, the “AHR effect compared with OBP alone” value in test [2] (same model as E7) was “slightly better than for OBP alone”.

Turning to “Bos d2+FA: Lipoprotein complex of His-Trx-Bos d2 with (E)-12-oxoheptadec-10-enoic acid”, in the test with human TLR2, the “NFkB induction in HEK-hTLR2” value is recorded as “even stronger effect than the cow SDE”. Also, in the test on 16HBE cells, the “transepithelial electrical resistance (TEER)” value is recorded as “stronger effect, at much lower concentration”. Further, the “OT-II CD4 T cell number (CD4+ count)” value in test [1] was “prevented”.

With `CCCCCC(=O)/C=C/CCCCCCCCC(=O)O` [FA, (E)-12-oxoheptadec-10-enoic acid], the “chemical shift perturbations (CSP) in 1H,15N-HSQC spectra” value at 15N-bOBP is recorded as “chemical shift perturbations (CSP) which is indicative for ligand binding”. Moreover, in test [2], the “Bronchoalveolar lavage” value was “does not have an effect” and the “AHR to increasing doses of methacholine” value is “an effect on AHR”.

B1: OBP: Recombinant bovine odorant-binding protein, lipocalin family, without ligand (protein, listed as Bos taurus)
chain: AQEEEAEQNLSELSGPWRTVYIGSTNPEKIQENGPFRTYFRELVFDDEKGTVDFYFSVKRDGKWKNVHVKATKQDDGTYVADYEGQNVFKIVSLSRTHLVAHNINVDKHGQTTELTELFVKLNVEDEDLEKFWKLTEDKGIDKKNVVNFLENEDHPHPE
Turning to B1, the “NFkB induction in HEK-hTLR2” value in the test with human TLR2 was “had an effect as well, but higher concentrations are needed”. In test [2], the “Bronchoalveolar lavage” value is “prevented allergic asthma” and the “AHR to increasing doses of methacholine” value is listed as “significant effect; also recorded: prevented allergic asthma”.
